In PMC9406419, “OATD-02 Validates the Benefits of Pharmacological Inhibition of Arginase 1 and 2 in Cancer” (Cancers, 2022):
Read-outs that look alike come from different tables or passages of the source.

Columns and labels:
[1] = tested on: intracellular arginase in murine M2-polarized BMDMs; experiment: Cell-based arginase inhibition assay in murine M2-polarized bone marrow-derived macrophages (urea in supernatant); parameters: species or system mouse; conditions: 24 h incubation, 5 mM L-arginine, read-out: IC50, intracellular activity towards arginase-expressing immune cells
Procedure: The intracellular activity of OATD-02 arginase inhibitor was determined using murine M2-polarized macrophages. Bone marrow cells were collected from femur bones of C57BL/6 male mice. The cells suspended in DMEM medium (ThermoFisher, Waltham, MA, USA) supplemented with 5% FBS and 50 ng/mL M-CSF (PeproTech, Rocky Hill, NJ, USA) were poured through a 40 µm cell strainer and seeded into Petri dishes at 1 × 10^6 cells/mL for 2 days (37 °C, 5% CO2). Next, nonadherent cells were removed and fresh medium was added (DMEM, 5% FCS, 50 ng/mL M-CSF). The next day, the cells were dissociated using the CellStripper Dissociation Reagent (Corning, New York, NY, USA) and resuspended in the fresh DMEM medium containing 5% FCS, 50 ng/mL M-CSF, 20 ng/mL TGF-ß, and 30 ng/mL IL-4 (Biomibo, Warszawa, Poland). The cells were seeded into 96-well plates (64 × 10^3 cells/100 µL/well). […] Following 24 h incubation (37 °C, 5% CO2), the generated urea was detected by mixing 50 µL of the supernatant with 75 µL of the developing reagent (as described in the above section). Normalized absorbance values (515 nm) were fitted to a four-parameter equation using GraphPad Prism and IC50 values were determined. […] Normalized absorbance values (515 nm) were fitted to a four-parameter equation using GraphPad Prism and IC50 values were determined. […]

[2] = biological target: intracellular arginase in human primary hepatocytes; experiment: Liver arginase inhibition assay in human primary hepatocytes (urea in supernatant); type: cell-based; conditions: 24 h incubation, 5 mM L-arginine
[3] = tested on: CT26 tumours; experiment: Syngeneic CT26 colorectal carcinoma model, monotherapy, with plasma/tumour bioanalytics; type: in vivo, mouse; conditions: for final TGI (tumour growth inhibition): CT26 in BALB/c mice, 100 mg/kg, PO, BID from day 1 post-inoculation
Procedure: CT26 and K562 in vivo experiments were conducted at Molecure SA. All experimental procedures were approved by the 1st Local Ethics Committee in Warsaw (Poland). For the syngeneic CT26 model, 7–8-week old BALB/c females (n = 9–18 per group, BALB/cAnNCrl, Charles River Laboratories) were injected subcutaneously in the right flank with 5 × 10^5 CT26 cells. […] Anti-PD-L1 antibody (InVivoPlus anti-mouse PD-L1, clone 10F.9G2, BioXCell, lot 615416D1) was injected intraperitoneally at 2.5 mg/kg on days: 8, 10, 12, 14 and 16 post tumour cells inoculation. Control groups received vehicle (saline) or isotype antibody (InVivoPlus rat IgG2b, anti-KLH, BioXCell, lot 629816D1). For the xenograft K562 model, 7–8 week-old athymic nude mice (n = 8–11 per group, Crl:NU(NCr)-Foxn1^nu, Charles River Laboratories) or NK cell-deficient Fox Chase SCID Beige mice (n = 10–12 per group, CB17.Cg-Prkdc^scidLyst^bg-J/Crl, Charles River Laboratories) were injected subcutaneously in the right flank with 1 × 10^7 K562 cells. […] Tumour volume measured by a digital calliper (width × length × depth × π/6) was recorded three times per week. Animals were euthanized when tumours were necrotized or volume exceeded 2000 mm^3. Renca in vivo efficacy study was performed at Crown Biosciences Inc. (Taicang, China). All experimental procedures on animals were approved by the Institutional Animal Care and Use Committee (IACUC) and conducted in accordance with the regulations of the Association for Assessment and Accreditation of Laboratory Animal Care (AAALAC). For the syngeneic Renca model, 6–7 week-old BALB/c females (n = 12 per group, Shanghai Lingchang Biotechnology, Shanghai, China) were injected subcutaneously in the right flank with 1 × 10^6 Renca cells. Tumour volumes (length × width^2 × 0.5) were measured twice per week. OATD-02 was dosed twice per day at 75 mg/kg by oral gavage. A dosing holiday was given to individuals with bodyweight loss exceeding 15% of the initial body weight and the treatment was resumed when the bodyweight loss recovered to less than 10%. Due to the cachexic nature of the Renca model, all animals were supplemented with DietGel to help maintain their body weight.
The concentrations of OATD-02, the reference ARGi or L-arginine were determined in plasma samples or tumour homogenates using liquid chromatography coupled with tandem mass spectrometry (LC-MS/MS). Sample preparation was based on protein precipitation using acetonitrile. The resulting supernatants were analysed using hydrophilic interaction liquid chromatography (HILIC) with subsequent MS detection based on optimised MRM transitions. Matrix-matched calibration and quality control samples were prepared for quantification of OATD-02 and the reference ARGi. Due to the endogenous character of L-arginine, a surrogate matrix was used for its detection.
All statistical analyses were performed using GraphPad Prism (ver. 9, GraphPad Software, Inc., San Diego, CA, USA). Data sets with normal distribution were described as means with SEM (standard error of the mean). Otherwise, the median value was shown and the U Mann–Whitney or the Kruskal–Wallis tests were applied for intergroup comparisons. Differences at p-value less than 0.05 were considered statistically significant. TGI (tumour growth inhibition) index was calculated by the formula: (1 − A/B) × 100%, where A is the tumour volume in the treated group and B is the volume in the control group. […]

| SMILES | IC50 [1] | IC50 [2] | fold change of endogenous plasma L-arginine ([3]; CT26-bearing mice, 100 mg/kg PO BID, 6 h after the last dosing) | final TGI (tumour growth inhibition) [3] | fold change of L-arginine in tumour homogenates ([3]; CT26 tumours, 100 mg/kg PO BID, within the first 6 h post-dosing) | IC50 ([1]; Mus musculus, BMDM) | IC50 ([2]; Hepatocyte) | oral bioavailability (plasma concentrations, compared between the two inhibitors) ([3]; CT26-bearing mice, 100 mg/kg PO BID, Figure 2B) |
| --- | --- | --- | --- | --- | --- | --- | --- | --- |
| CN(C)C[C@@H]1CC[C@@H](CCB(O)O)C[C@]1(N)C(=O)O [OATD-02] | 1.1 µM | 14.2 µM | up to 6.7 fold | 48% | up to 6.9 fold |  |  |  |
| C[C@H](N)C(=O)N1C[C@H](CCCB(O)O)[C@](N)(C(=O)O)C1 [ref. ARGi, numidargistat, reference compound] |  |  |  | 28% |  | 56.2 µM | 50.1 µM | higher oral bioavailability |
